For 45 compounds, IC50 results are on record in patent US12398111B2, “Triazine compounds and pharmaceutical use thereof” (Japan Tobacco Inc., priority 2014, dated 2025).

Molecules are shown by their SMILES.

In this experiment the target is T1, human mPGES-1 (Homo sapiens, UniProt O14684).
T1 construct: made in house; host or cells: FreeStyle CHO-S cells (Chinese hamster ovary), transient transfection with pcDNA3.1(+)/human mPGES-1; microsome fraction used
T1 sequence (O14684 1-152): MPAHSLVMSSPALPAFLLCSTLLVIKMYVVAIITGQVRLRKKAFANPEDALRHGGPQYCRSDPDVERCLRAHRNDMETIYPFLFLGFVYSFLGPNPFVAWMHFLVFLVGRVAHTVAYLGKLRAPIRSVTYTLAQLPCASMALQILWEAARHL
The experiment can be described thus: Evaluation of human mPGES-1 enzyme inhibitory activity (PGE2 measured by HTRF, microsome fraction of CHO-S cells expressing human mPGES-1). The note with it: IC50 value; microsome fraction of CHO-S cells expressing human mPGES-1, PGE2 by HTRF. The format is biochemical. As for the experimental part: That is, the amount of PGE2 produced by human mPGES-1 in the presence of a test article was measured by the HTRF (homogeneous time resolved fluorescence) method, based on which the human mPGES-1 enzyme inhibitory activity of the test article was determined.
1) Preparation of Human mPGES-1 Expressing Cell Microsome Fraction
A DNA fragment containing human mPGES-1, which is added with a BamHI recognition cleavage sequence immediately before the translation initiation codon and an EcoRI recognition cleavage sequence immediately after the translation termination codon was amplified by the PCR (Polymerase Chain Reaction) method using a human mPGES-1 expression plasmid DNA (pME-18S/iPGES-1) prepared in-house as a template. The purified DNA fragment was digested with BamHI and EcoRI, and ligated to pcDNA3.1(+) (Invitrogen, model number V790-20), similarly digested with BamHI and EcoRI, by using a DNA Ligation kit ver.2.1 (Takara Bio, model number 6022). The human mPGES-1 expression plasmid DNA was isolated from Escherichia coli DH5a (TOYOBO, model number DNA-903) transformed with the obtained ligation product. The base sequence of human mPGES-1 cloned to a vector was determined by the Dye Terminator method by using BigDye Terminator v3.1 Cycle Sequencing Kit (Applied Biosystems, #4337455).
Human mPGES-1 expression plasmid DNA was transfected into Chinese hamster ovary-derived cells (FreeStyle CHO-S Cell, Invitrogen, #R800-07) by using a transgene reagent (FreeStyle MAX Reagent (Invitrogen, #16447-100)), and cultured with shaking (8% CO2, 37° C.) in a medium containing 8 mmol/L L-glutamine (GIBCO FreeStyle CHO Expression Medium, Invitrogen, #12651-022) for 48 hr.
The CHO-S cells were suspended in Homogenate Buffer (100 mmol/L potassium phosphate (pH 7.4), 250 mmol/L Sucrose, 100 mmol/L EDTA, complete EDTA free (Roche, #1873580)). Using an ultrasonic disruptor UD-201 (Tomy Seiko), the suspended cells were disrupted at output:3, duty cycle:50 for 30 seconds. The precipitate was removed by centrifugation (1,000×g, 5 min, 4° C.), is and the supernatant was centrifuged (5,000×g, 10 min, 4° C.). The supernatant was further centrifuged (105,000×g, 60 min, 4° C.). The obtained precipitate was suspended in Resuspension Buffer (100 mmol/L potassium phosphate (pH 7.4), 250 mmol/L sucrose, 100 mmol/L EDTA, 10% glycerol) to give a microsome fraction.
The protein concentration of the microsome fraction was measured by the Bradford method (Protein Assay Kit, Bio-Rad). The microsome fraction was rapidly frozen in liquid nitrogen and preserved at −80° C. Human mPGES-1 in the microsome fraction was detected by Western Blot using rabbit anti-mPGES-1 polyclonal antibody (ThermoFisher Scientific, #PA1-10264).
2) Evaluation of Human mPGES-1 Enzyme Inhibitory Activity
A test article solution diluted with 0.1 mol/L potassium phosphate, pH 7.4 (hereinafter to be referred to as KPB) or DMSO (Nacalai Tesque, #13407-45) was added at 5 μL/well to 96 well V-bottom plate (Corning, #3363). The final DMSO concentration during the reaction was set to 2% (v/v). Furthermore, a microsome fraction of CHO-S cells expressing human mPGES-1, which was diluted with reduced GSH (12.5 mmol/L KPB solution, SIGMA, #G6529-25G) such that the protein concentration was 5 μg/mL, was added at 20 μL/well. The amount of the microsome fraction used is the amount of microsome fraction within a range where the amount of PGE2 produced under the reaction conditions shown below and the amount of microsome fraction used show linearity. To the blank was added reduced GSH (12.5 mmol/L KPB solution) at 20 μL/well.
Regarding `CC(C)COc1cccc(-c2nc(O)nc(-c3cc(CNC(=O)C(C)(C)C(F)(F)F)ccc3Cl)n2)c1` [Example 1-88], the concentration for half-maximal inhibition (IC50) is 1.2 nM. Take `CO[C@@](C)(C(=O)NCc1ccc(Cl)c(-c2nc(O)nc(-c3ccccc3)n2)c1)C(F)(F)F` [Example 1-89]: the IC50 was 0.9 nM. `Cc1cc(-c2nc(O)nc(-c3cc(CNC(=O)C(C)(C)C(F)(F)F)ccc3Cl)n2)ccc1F` [Example 1-90] gave an IC50 of 0.4 nM. `CC(C)Oc1cccc(-c2nc(O)nc(-c3cc(CNC(=O)C(C)(C)C(F)(F)F)ccc3Cl)n2)c1` [Example 1-91] returned an IC50 of 0.4 nM. With `CC(C)(C)c1cccc(-c2nc(O)nc(-c3cc(CNC(=O)C(C)(C)C(F)(F)F)ccc3Cl)n2)c1` [Example 1-92] the figure was 0.5 nM; with `Cc1cc(C)cc(-c2nc(O)nc(-c3cc(CNC(=O)C(C)(C)C(F)(F)F)ccc3Cl)n2)c1` [Example 1-93], 0.7 nM.

The compound `CC(C)(C)c1cccc(-c2nc(O)nc(-c3cc(CNC(=O)c4ccccc4)ccc3Cl)n2)c1` [Example 1-94] gave a half-inhibitory concentration (IC50) of 4.6 nM. For `CC(C)Cc1cccc(-c2nc(O)nc(-c3cc(CNC(=O)C(C)(C)C(F)(F)F)ccc3Cl)n2)c1` [Example 1-95], the IC50 came out at 2.1 nM. Against the preceding compound, the IC50 is about 2.2-fold lower.

The compound `CCO[C@](C)(C(=O)NCc1ccc(Cl)c(-c2nc(O)nc(-c3ccccc3)n2)c1)C(F)(F)F` [Example 1-96] had an IC50 of 81 nM. `CCO[C@@](C)(C(=O)NCc1ccc(Cl)c(-c2nc(O)nc(-c3ccccc3)n2)c1)C(F)(F)F` [Example 1-97] gave an IC50 of 9.1 nM. `CC(C)(C(=O)NCc1ccc(Cl)c(-c2nc(O)nc(-c3cccc(OCC(F)(F)F)c3)n2)c1)C(F)(F)F` [Example 1-99]: the half-maximal inhibitory concentration (IC50) came out at 0.7 nM. In turn, `CC(C)(C(=O)NCc1ccc(Cl)c(-c2nc(O)nc(-c3cccc(C4CCC4)c3)n2)c1)C(F)(F)F` [Example 1-100] registered a concentration for half-maximal inhibition (IC50) of 0.9 nM. This IC50 and that of the compound before are within 1.5-fold of each other.

Compound `CC(C)Cc1ccc(-c2nc(O)nc(-c3cc(CC(=O)NC(C)(C)C)ccc3Cl)n2)cc1` [Example 1-101] registered an IC50 of 5.8 nM. For `CCCc1cccc(-c2nc(O)nc(-c3cc(CNC(=O)C(C)(C)C(F)(F)F)ccc3Cl)n2)c1` [Example 1-102] the value was 0.9 nM; for `CO[C@](C)(C(=O)NCc1ccc(Cl)c(-c2nc(O)nc(-c3cccc(OC(F)(F)F)c3)n2)c1)C(F)(F)F` [Example 1-103], 1.3 nM; for `CCCc1cccc(-c2nc(O)nc(-c3cc(CNC(=O)[C@@](C)(OC)C(F)(F)F)ccc3Cl)n2)c1` [Example 1-104], 1.5 nM.

Consider `CO[C@](C)(C(=O)NCc1ccc(Cl)c(-c2nc(O)nc(-c3ccc(C)c(F)c3)n2)c1)C(F)(F)F` [Example 1-105], for which the midpoint of inhibition, the IC50, lay at 0.7 nM.

`CO[C@](C)(C(=O)NCc1ccc(Cl)c(-c2nc(O)nc(-c3ccc(F)c(C)c3)n2)c1)C(F)(F)F` [Example 1-106] had an IC50 of 0.7 nM. Take `CC(C)c1cccc(-c2nc(O)nc(-c3cc(CNC(=O)C(C)(C)C(F)(F)F)ccc3Cl)n2)c1` [Example 1-107]: the IC50 was 1.2 nM. The compound `CO[C@](C)(C(=O)NCc1ccc(Cl)c(-c2nc(O)nc(-c3cccc(C(C)C)c3)n2)c1)C(F)(F)F` [Example 1-108] registered a half-inhibitory concentration (IC50) of 0.6 nM. This IC50 is about 2-fold lower than that of the compound before. Regarding `CCc1cccc(-c2nc(O)nc(-c3cc(CNC(=O)C(C)(C)C(F)(F)F)ccc3Cl)n2)c1` [Example 1-110], half-maximal inhibition (IC50) required 0.9 nM. In turn, `Cc1cccc(-c2nc(O)nc(-c3cc(CNC(=O)C(C)(C)C(F)(F)F)ccc3Cl)n2)c1` [Example 1-111] came in with a 50% inhibitory concentration (IC50) of 1.2 nM. With `Cc1cc(-c2nc(O)nc(-c3cc(CNC(=O)C(C)(C)C(F)(F)F)ccc3Cl)n2)ccc1Cl` [Example 1-112] the figure was 0.9 nM; with `CC(C)(C(=O)NCc1ccc(Cl)c(-c2nc(O)nc(-c3ccc(OCC(F)(F)F)cc3)n2)c1)C(F)(F)F` [Example 1-113], 0.9 nM; with `CC(C)CCOc1ccc(-c2nc(O)nc(-c3cc(CNC(=O)C(C)(C)C(F)(F)F)ccc3Cl)n2)cc1` [Example 1-114], 5.9 nM. With `CSc1ccc(-c2nc(O)nc(-c3cc(CNC(=O)C(C)(C)C(F)(F)F)ccc3Cl)n2)cc1` [Example 1-115] the figure was 0.6 nM. For `CC(C)(C(=O)NCc1ccc(Cl)c(-c2nc(O)nc(-c3ccc(OCC4CCC4)cc3)n2)c1)C(F)(F)F` [Example 1-116] the value was 2 nM; for `CC(C)c1cc(-c2nc(O)nc(-c3cc(CNC(=O)C(C)(C)C(F)(F)F)ccc3Cl)n2)ccc1F` [Example 1-117], 1.6 nM. With `CCCc1cc(-c2nc(O)nc(-c3cc(CNC(=O)C(C)(C)C(F)(F)F)ccc3Cl)n2)ccc1F` [Example 1-118], the midpoint of inhibition, the IC50, lay at 1.9 nM. `CC(F)(F)c1ccc(-c2nc(O)nc(-c3cc(CNC(=O)C(C)(C)C(F)(F)F)ccc3Cl)n2)cc1` [Example 1-119] registered a concentration for half-maximal inhibition (IC50) of 1 nM. `CC(C)COc1ccc(-c2nc(O)nc(-c3cc(CNC(=O)C(C)(C)C(F)(F)F)ccc3Cl)n2)cc1C(F)(F)F` [Example 1-120] came in with an IC50 of 48 nM. The compound `CCc1cccc(-c2nc(O)nc(-c3cc(CNC(=O)[C@@](C)(OC)C(F)(F)F)ccc3Cl)n2)c1` [Example 1-121] gave an IC50 of 1.2 nM. `CO[C@](C)(C(=O)NCc1ccc(Cl)c(-c2nc(O)nc(-c3ccc(OCC(C)C)cc3)n2)c1)C(F)(F)F` [Example 1-123]: the IC50 was found to be 2.3 nM. This IC50 lies about 1.9-fold higher than the previous one. On to `CCc1cc(-c2nc(O)nc(-c3cc(CNC(=O)C(C)(C)C(F)(F)F)ccc3Cl)n2)ccc1F` [Example 1-124], for which the IC50 was 0.9 nM. Take `Cc1cc(-c2nc(O)nc(-c3cc(CNC(=O)C4(C(F)(F)F)CCC4)ccc3Cl)n2)ccc1F` [Example 1-125]: the IC50 is 0.8 nM. Turning to `CO[C@](C)(C(=O)NCc1ccc(Cl)c(-c2nc(O)nc(-c3ccc(C(F)(F)F)cc3)n2)c1)C(F)(F)F` [Example 1-126], half-maximal inhibition (IC50) was put at 0.8 nM. Take `Cc1cc(-c2nc(O)nc(-c3cc(CNC(=O)C4(C(F)(F)F)CC4)ccc3Cl)n2)ccc1F` [Example 1-127]: the midpoint of inhibition, the IC50, lay at 0.8 nM. That is a sub-nanomolar value.

Turning to `CCOc1ccc(-c2nc(O)nc(-c3cc(CNC(=O)C(C)(C)C(F)(F)F)ccc3Cl)n2)cc1` [Example 1-132], the IC50 came out at 0.3 nM.

For the compound `CC(C)(C(=O)NCc1ccc(Cl)c(-c2nc(O)nc(-c3ccc(OCC4CC4)cc3)n2)c1)C(F)(F)F` [Example 1-133], the IC50 came to 0.5 nM. `CC(C)(C(=O)NCc1ccc(Cl)c(-c2nc(O)nc(-c3ccc(O)cc3)n2)c1)C(F)(F)F` [Example 1-134] gave a concentration for half-maximal inhibition (IC50) of 4 nM. `CO[C@](C)(C(=O)NCc1ccc(Cl)c(-c2nc(O)nc(-c3ccc(C(C)(F)F)cc3)n2)c1)C(F)(F)F` [Example 1-138]: half-maximal inhibition (IC50) required 0.5 nM.

Take `COc1ccc(-c2nc(O)nc(-c3cc(CNC(=O)C(C)(C)C(F)(F)F)ccc3Cl)n2)cc1` [Example 1-139]: the 50% inhibitory concentration (IC50) is 0.6 nM.

`CC(C)Oc1ccc(-c2nc(O)nc(-c3cc(CNC(=O)C(C)(C)C(F)(F)F)ccc3Cl)n2)cc1` [Example 1-140]: half-maximal inhibition (IC50) was put at 0.5 nM. This IC50 and that of the compound before are within 1.5-fold of each other. In the case of `CC(C)(C(=O)NCc1ccc(Cl)c(-c2nc(O)nc(-c3ccc(OC4CCC4)cc3)n2)c1)C(F)(F)F` [Example 1-141], the IC50 amounted to 1.1 nM. Compared with the last compound, the IC50 is about 2.2-fold higher. On to `CC(C)(C(=O)NCc1ccc(Cl)c(-c2nc(O)nc(-c3ccc(OCCC(F)(F)F)cc3)n2)c1)C(F)(F)F` [Example 1-142], for which half-maximal inhibition (IC50) was put at 0.5 nM.

Usually IC50 stands for the concentration that gives 50% inhibition. Read a low IC50 as greater potency.
